The subject of assay [1] is N-α-acetyl-Lys-D-ala-D-ala. The assay can be described thus: Quartz crystal microbalance (QCM) detection of vancomycin on grafted peptide receptor. Type of assay: binding. The settings on record: water/glucose solution compared with water; 1 µM and 40 µM; flow rate 40 µL/min. The protocol:
Quartz crystal microbalance experiments were performed using SRS Stanford Research Systems (QCM 200 5MHz). The surfaces of gold-plated quartz crystal on chips were prepared as follows: gold-plated quartz crystals were initially immersed in a piranha solution (70/30) for 3 minutes to regenerate the surfaces. The resulting crystals were repeatedly and intensively rinsed with water. The crystals were subsequently grafted with mPEG thiols (O-(2-Mercaptoethyl)-O'-methyl-hexa(ethylene glycol) (polypure) 10^-3 M in ethanol. The grafted crystals were subsequently rinsed with ethanol in an ultrasonic bath, and dried with N2. The grafted crystals were subsequently grafted with NHS ester succinimidyl, 2 mM in acetonitrile sprayed on the surfaces and the surfaces were placed in front of a UV lamp during 2 hours. The functionalized surfaces of the crystals were subsequently rinsed with acetonitrile in an ultrasonic bath; dried with N2, and then subsequently grafted with N-α-acetyl-Lys-D-ala-D-ala in pure water and in water with 5% of glucose (vol.).
All QCM experiments used a flow rate of 40 µL/min. The quality of all the grafting has been tested at each step, by contact angle measurements and IR spectra. All of them were satisfactory. Figures 6, 7 and 8 represent QCM data plot showing delta frequency (MHz) change over time of vancomycin detection. […]

The subject of the next assay is Nα(Ac)-L-Lys-D-Ala-D-Ala. The assay can be described thus: FTIR-ATR biosensor binding of vancomycin to immobilized peptide receptor. As to conditions: for vancomycin binding: 50 µg/mL; for Kd: single site binding isotherm, R^2 = 0.99, ± standard error. The protocol: On the thus functionalized ATR element a peptide was bound. Peptide binding onto the device was obtained in one channel of measurement at a time by incubation for 3 hours of N-α-acetyl-Lys-D-Ala-D-Ala peptide, or another peptide as provided in Figure 2, at a concentration of 2 mg/mL in phosphate buffered saline (PBS) at room temperature. The measurement channel was then rinsed with milliQ water for 30 min.
The binding of the peptide was monitored by FTIR-ATR spectroscopy by using the BIA-ATR device. Attenuated Total Reflection Fourier Transformed Infrared (ATR-FTIR) Spectra were obtained on a Brüker IFS55 FTIR spectrophotometer (Ettlingen, Germany) equipped with a MCT detector (broad band 12000-420 cm^-1, liquid N2 cooled, 24h hold time) at a resolution of 8 cm^-1 with an aperture of 3.5 mm and acquired in the double-sided, forward-backward mode. Two levels of zero filling of the interferogram prior to Fourier transform allowed encoding the data every 1 cm^-1. The spectrometer was continuously purged with dry air (Whatman 75-62, Haverhill, MA, USA). Triangular-shaped germanium crystals (4.8 x 4.8 x 45 mm^3) were purchased from Biosentech (Belgium) and accommodated on the beam condenser from a Golden Gate Micro-ATR from Specac. A top plate with a groove fitting the crystal was used in replacement of the diamond-bearing plate (WOW Company, Belgium). With this geometry, a single reflection was obtained and more than 10 lanes can be used on a crystal.
Using a biosensor constructed in Example 1, a solution of vancomycin in pure water (obtained from the laboratory MilliQ system) at a concentration of at 50 µg/mL is passed over one channel of the crystal at a flow-rate of 20 µl/min. FTIR-ATR spectra were recorded continuously and the vancomycin binding is monitored by following the appearance of its characteristic signal at 1230 cm^-1. This monitoring of this signal is advantageous as it is isolated in the spectra, i.e. not superimposed to other signals due to ligand and/or receptor. The intensity of the peak at 1230 cm^-1 thus allowed the quantitative measurement of vancomycin binding.
The N-α(Ac)-L-Lys-D-Ala-D-Ala biosensor as described in Example 1 was used. A solution of vancomycin in phosphate buffered saline (50 µg/mL) was used in the binding assay. The quantitative analysis was performed by measuring the surface on the IR spectra comprised between 1253 and 1218 cm^-1. The spectra were recorded every 30 sec during 5 min. […] The results are depicted in Figure 1.
The unexpected effect on the binding affinity of vancomycin versus X-D-Ala-D-Ala receptor immobilized on the ATR optical element, has been further observed by using the following detection media: 3 mM aqueous solution of Na2HPO4, 10 mM aqueous solution of Na2HPO4, 154 mM aqueous solution of NaCl, and a PBS solution made from 3 mM Na2HPO4 and 50 mM NaCl.
The Nα(Ac)-L-Lys-D-Ala-D-Ala biosensor described in Example 1 was used. The assays were performed three times successively using the same channel, and this has been repeated at three different days (n = 9) using another channel for each day. Solutions of vancomycin in 5% glucose at various concentrations (from 0 to 25 µg/mL) were passed over the crystal at a flow rate of 20 µL/min. The vancomycin binding was analyzed by the integration of the peak at 1230 cm^-1 (10 spectra recorded every 30 sec), and normalized by referring to the 25 µg/mL concentration.
The spiked dialyzed serum samples were flown over a measurement channel on which the Nα(Ac)-L-Lys-D-Ala-D-Ala had been attached as described before in Example 1. The absorption band between 1259 and 1213 cm^-1 was quantified for each vancomycin concentration. The area of the band was reported as a function of vancomycin concentration. […] From the data reported in Figure 4 it follows that vancomycin binding can be monitored with precision in a concentration range which is relevant for medical application.

1 molecule from patent EP2490029A1, “Vancomycin analysis” (Université Catholique de Louvain, priority 2011, dated 2012) can be followed below.

In general, Kd refers to the free concentration of one partner at which half of the binding sites on the other are occupied at equilibrium, for simple one-to-one binding. Low readings indicate higher affinity, high ones lower affinity.

As to `CN[C@H](CC(C)C)C(=O)N[C@H]1C(=O)N[C@@H](CC(N)=O)C(=O)N[C@H]2C(=O)N[C@H]3C(=O)N[C@H](C(=O)N[C@H](C(=O)O)c4cc(O)cc(O)c4-c4cc3ccc4O)[C@H](O)c3ccc(c(Cl)c3)Oc3cc2cc(c3O[C@@H]2O[C@H](CO)[C@@H](O)[C@H](O)[C@H]2O[C@H]2C[C@](C)(N)[C@H](O)[C@H](C)O2)Oc2ccc(cc2Cl)[C@H]1O` [vancomycin], the delta frequency shift entry in assay [1] is listed as “greater delta frequency was always observed in the presence of glucose”. For the same molecule, the “amount of vancomycin detected” value with Nα(Ac)-L-Lys-D-Ala-D-Ala (50 µg/mL in phosphate buffered saline, compared to pure water, IR area 1253-1218 cm^-1) is on record as “very weak”. Further, the vancomycin binding entry with Nα(Ac)-L-Lys-D-Ala-D-Ala (effect of phosphate (3 mM or 10 mM Na2HPO4, PBS) in detection medium) is on record as “totally prevents”; with Nα(Ac)-L-Lys-D-Ala-D-Ala (effect of sodium chloride at physiological concentration (154 mM NaCl)), “partially inhibited”. Also, the Kd on Nα(Ac)-L-Lys-D-Ala-D-Ala (in 5% glucose, band area 1259-1213 cm^-1) was 13.7 ± 1.8 µM; on Nα(Ac)-L-Lys-D-Ala-D-Ala (in human serum dialyzed against 5% glucose), 7.3 ± 0.8 µM. Further, the “vancomycin binding onto the receptor” value in the assay with Nα(Ac)-L-Lys-D-Ala-D-Ala (in pure water) is on record as “maximal”.
